IC50 and inhibition data for 2 compounds are collected here from article PMC6210072 (ACS Omega, 2018).

For one assay, the target named is PARP2 (Homo sapiens, UniProt Q9UGN5). The assay is classed as biochemical.
The next assay has as its target ROCK2 (Homo sapiens, UniProt O75116). It is filed as biochemical. The settings on record: read-out: ROCK2.

PARP2, sequence (Q9UGN5 whole entry): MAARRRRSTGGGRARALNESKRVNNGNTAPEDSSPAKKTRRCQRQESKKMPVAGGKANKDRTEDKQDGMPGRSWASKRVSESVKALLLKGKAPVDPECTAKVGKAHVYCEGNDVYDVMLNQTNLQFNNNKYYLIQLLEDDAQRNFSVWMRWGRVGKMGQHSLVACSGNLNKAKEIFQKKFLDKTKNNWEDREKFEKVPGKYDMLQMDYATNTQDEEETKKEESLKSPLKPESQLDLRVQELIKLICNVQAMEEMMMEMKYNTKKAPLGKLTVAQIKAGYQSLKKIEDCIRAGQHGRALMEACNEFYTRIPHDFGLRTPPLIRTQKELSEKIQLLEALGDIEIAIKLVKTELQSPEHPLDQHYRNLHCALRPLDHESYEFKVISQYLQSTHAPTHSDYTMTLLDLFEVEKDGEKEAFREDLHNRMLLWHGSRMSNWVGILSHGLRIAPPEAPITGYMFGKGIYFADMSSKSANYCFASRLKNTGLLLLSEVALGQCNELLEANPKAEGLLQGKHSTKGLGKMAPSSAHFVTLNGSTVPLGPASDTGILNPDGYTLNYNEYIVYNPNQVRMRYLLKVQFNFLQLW
ROCK2, sequence (O75116 whole entry): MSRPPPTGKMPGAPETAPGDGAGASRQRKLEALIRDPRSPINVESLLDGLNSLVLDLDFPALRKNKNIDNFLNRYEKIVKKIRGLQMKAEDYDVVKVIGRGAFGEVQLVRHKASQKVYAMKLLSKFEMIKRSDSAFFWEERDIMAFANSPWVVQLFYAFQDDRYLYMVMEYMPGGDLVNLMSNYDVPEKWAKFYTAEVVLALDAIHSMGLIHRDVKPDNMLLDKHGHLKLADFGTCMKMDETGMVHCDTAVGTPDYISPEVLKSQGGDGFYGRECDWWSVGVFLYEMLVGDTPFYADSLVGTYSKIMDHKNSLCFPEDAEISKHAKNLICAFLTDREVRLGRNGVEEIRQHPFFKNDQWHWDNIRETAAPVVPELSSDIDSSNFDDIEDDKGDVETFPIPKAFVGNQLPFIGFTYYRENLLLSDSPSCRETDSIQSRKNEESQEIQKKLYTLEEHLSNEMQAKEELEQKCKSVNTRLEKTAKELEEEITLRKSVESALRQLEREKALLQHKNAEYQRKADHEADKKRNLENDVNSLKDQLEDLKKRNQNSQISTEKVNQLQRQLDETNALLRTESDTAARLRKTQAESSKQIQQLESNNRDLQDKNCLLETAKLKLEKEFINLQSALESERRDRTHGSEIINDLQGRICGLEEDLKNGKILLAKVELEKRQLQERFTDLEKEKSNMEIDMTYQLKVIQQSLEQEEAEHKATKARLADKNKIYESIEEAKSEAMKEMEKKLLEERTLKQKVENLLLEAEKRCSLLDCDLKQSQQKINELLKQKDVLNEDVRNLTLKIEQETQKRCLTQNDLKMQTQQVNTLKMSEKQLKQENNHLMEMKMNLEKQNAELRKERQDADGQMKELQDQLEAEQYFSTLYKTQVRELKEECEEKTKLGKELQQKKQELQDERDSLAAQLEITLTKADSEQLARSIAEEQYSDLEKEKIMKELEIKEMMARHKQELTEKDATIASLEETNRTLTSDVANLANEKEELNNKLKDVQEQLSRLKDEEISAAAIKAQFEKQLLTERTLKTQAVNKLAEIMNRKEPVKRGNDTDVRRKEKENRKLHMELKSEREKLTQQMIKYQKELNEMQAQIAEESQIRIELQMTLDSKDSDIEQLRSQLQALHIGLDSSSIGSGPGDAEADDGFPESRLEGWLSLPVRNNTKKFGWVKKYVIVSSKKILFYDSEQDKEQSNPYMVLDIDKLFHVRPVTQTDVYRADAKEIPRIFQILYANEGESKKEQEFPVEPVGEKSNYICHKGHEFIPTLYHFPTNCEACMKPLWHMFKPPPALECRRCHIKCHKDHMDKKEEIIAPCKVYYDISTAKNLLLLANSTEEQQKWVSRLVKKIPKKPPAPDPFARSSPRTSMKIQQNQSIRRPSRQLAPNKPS

At PARP2, `O=S(=O)(c1cccc2c(O)nccc12)N1CCCNCC1` [compound 4, hydroxyfasudil] gave an IC50 of 35.1 µM. For the compound `O=C(COc1cccc2c(=O)[nH]ccc12)c1ccccc1` [compound 6, UPF 1069], the inhibition at 10 µM at ROCK2 turned out to be 20.5 ± 0.4%.

The term IC50 denotes the concentration that inhibits the measured activity by half. A low value points to greater potency in that assay.
